Experimental data as given in patent US8143253B2, “Organic compounds” (Novartis AG, priority 2007, dated 2012).

Legend:
[1] = target: T1, human ALK5 (ALK5 T204D kinase domain) (Homo sapiens, UniProt P36897, T204D); assay: ALK5 kinase activity, radiolabelled phosphate [33P] incorporation into casein; format: biochemical; details: casein substrate, 1 μM unlabelled ATP
T1 construct: The kinase domain of human ALK5 (amino acids 200-503) is fused to an N-terminal histidine tag; made in house; host or cells: insect cells (baculovirus)
T1 sequence (P36897 200-503 T204D): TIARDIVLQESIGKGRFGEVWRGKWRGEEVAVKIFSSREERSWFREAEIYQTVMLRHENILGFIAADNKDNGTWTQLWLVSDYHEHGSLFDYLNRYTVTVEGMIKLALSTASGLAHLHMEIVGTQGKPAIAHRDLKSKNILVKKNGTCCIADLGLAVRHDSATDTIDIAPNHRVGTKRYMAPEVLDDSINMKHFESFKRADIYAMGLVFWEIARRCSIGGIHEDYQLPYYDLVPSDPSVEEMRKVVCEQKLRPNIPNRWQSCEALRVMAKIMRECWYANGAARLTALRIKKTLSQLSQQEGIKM
Description: The kinase activity of ALK5 is assessed by measuring radiolabelled phosphate [33P] incorporation in to the generic substrate, casein. The kinase domain of human ALK5 (amino acids 200-503) is fused to an N-terminal histidine tag. The kinase activity of ALK5 is rendered constitutive via point mutation at amino acid 204 (threonine to aspartate modification, ALK5 T204D) and the kinase construct is engineered to be expressed from a baculovirus expression construct in insect cells. The purified, recombinantly-expressed histidine-tagged ALK5 T204D protein is dissolved at 5.4 mg/ml in 50 mM Tris-HCl pH 8.0, 150 mM NaCl, 5 mM DTT. ALK5 T204D is dissolved to 2.5 μg/ml in assay buffer (Assay buffer: 20 mM Tris-HCl pH 7.4, 10 mM MgCl2, 2 mM MnCl2) on the day of use.
Test compounds and reference compounds are dissolved in assay buffer without DTT containing 5% (v/v) DMSO. Stock solutions of test and reference compounds are diluted in assay buffer with DTT (1.25 mM) containing 4.5% (v/v) DMSO. 10 μl of test or reference compound are added to the corresponding wells of 96 well U-bottomed plate. Total enzyme activity is determined by measuring ALK5 T204D activity in the absence of ALK5 kinase inhibitor reference compounds. Non-specific binding (NSB) is determined by measuring the activity of ALK5 T204D in the presence of ALK5 kinase inhibitor reference compounds. 10 μl of dephosphorylated casein stock solution (dephosphorylated casein is dissolved in ddH2O at 20 mg/ml) is added per well (200 μg/well final assay concentration). 20 μl of ALK5 T204D (2.5 μg/ml solution) is added per well (50 ng/well final assay concentration). The plates are left to incubate at room temperature for 10 minutes.
10 μl of ATP mix is added to the well to initiate the reaction (0.66 nM [^33P]ATP/1 μM unlabelled ATP/well final assay concentration). The ATP mix is prepared as follows, unlabelled ATP (3 mM) is dissolved in ddH2O and pH adjusted to 7.4. The stock concentration of [^33P]ATP is 10 μCi/μl. The corresponding volume of [^33P]ATP is added to unlabelled ATP solution such that the final assay concentration per well is 0.1 μCi. Following addition of the ATP mix, the plates are incubated at room temperature for 50 minutes. The kinase reaction is terminated by the addition of 50 μL Stop Buffer (20 mM Tris-HCl pH 7.4, 10 mM EDTA).
75 μl/well from the reaction plate is transferred to a Multiscreen-IP plate (MultiScreen-IP plates are prepared by added 50 μL of 70% (v/v) ethanol per well and incubated for 5 minutes at room temperature. The ethanol is removed by aspiration via a MultiScreen HTS Vacuum Manifold unit (Millipore, Cat no: MSVMHT500). The plates are washed twice by adding 200 μl/well ddH2O). The MultiScreen-IP plate is incubated at room temperature for 30 minutes to allowing binding of casein to the plate. The MultiScreen-IP plates are washed three times by adding 200 μl/well 100 mM phosphoric acid solution and the gasket is carefully removed from the back of the MultiScreen-IP plate and the plate dried in the oven for 30 minutes. The MultiScreen-IP plate is backsealed, 50 μL of Microscint™ 20 is added, then the plates are topsealed and radiolabelled casein detected and quantified on a TopCount™ plate-reader using the ^33P scintillation protocol.

[2] = tested on: dimethylnitrosamine induced liver fibrosis; details: rat, cited from earlier work

CNC(=O)c1cccc(-c2cnn3c(-c4ccnc(-c5ccccc5)c4)cnc3c2)c1 [Example 1, N-Methyl-3-[3-(2-phenyl-pyridin-4-yl)-imidazo[1,2-b]pyridazin-7-yl]-benzamide]
IC50 [1]: 83 nM

CNC(=O)c1cccc(-c2cnn3c(-c4ccnc(-c5ccc(F)cc5)c4)cnc3c2)c1 [Example 6, 3-{3-[2-(4-Fluoro-phenyl)-pyridin-4-yl]-imidazo[1,2-b]pyridazin-7-yl}-N-methyl-benzamide]
IC50 [1]: 139 nM

Oc1cccc(-c2cnn3c(-c4cccc(-n5cccn5)c4)cnc3c2)c1 [Example 8, 3-[3-(3-Pyrazol-1-yl-phenyl)-imidazo[1,2-b]pyridazin-7-yl]-phenol]
IC50 [1]: 24 nM

c1ccc(-c2cc(-c3cnc4cc(-c5ccncc5)cnn34)ccn2)cc1 [Example 10, 3-(2-Phenyl-pyridin-4-yl)-7-pyridin-4-yl-imidazo[1,2-b]pyridazine]
IC50 [1]: 28 nM

CS(=O)(=O)Nc1cccc(-c2cnn3c(-c4ccnc(-c5ccoc5)c4)cnc3c2)c1 [Example 14, N-{3-[3-(2-Furan-3-yl-pyridin-4-yl)-imidazo[1,2-b]pyridazin-7-yl]-phenyl}-methanesulfonamide]
IC50 [1]: 42 nM

c1cncc(-c2cnn3c(-c4cccc(-n5cccn5)c4)cnc3c2)c1 [Example 18, 3-(3-Pyrazol-1-yl-phenyl)-7-pyridin-3-yl-imidazo[1,2-b]pyridazine]
IC50 [1]: 47 nM

COc1cc(-c2cnc3cc(-c4cccnc4)cnn23)ccc1O [Example 20, 2-Methoxy-4-(7-pyridin-3-yl-imidazo[1,2-b]pyridazin-3-yl)-phenol]
IC50 [1]: 203 nM

NC(=O)c1cccc(-c2cnc3cc(-c4cccc(F)c4)cnn23)c1 [Example 24, 3-[7-(3-Fluoro-phenyl)-imidazo[1,2-b]pyridazin-3-yl]-benzamide]
IC50 [1]: 83 nM

CCOC(=O)c1ccc(-c2cnn3c(-c4cccc(-n5cccn5)c4)cnc3c2)cc1 [Example 34, 4-[3-(3-Pyrazol-1-yl-phenyl)-imidazo[1,2-b]pyridazin-7-yl]-benzoic acid ethyl ester]
IC50 [1]: 141 nM

CCCCNC(=O)c1cccc(-c2cnn3c(-c4ccnc(-c5ccccc5)c4)cnc3c2)c1 [Example 59, N-Butyl-3-[3-(2-Phenyl-pyridin-4-yl)-imidazo[1,2-b]pyridazin-7-yl]-benzamide]
IC50 [1]: 236 nM

c1ccc(-c2cc(-c3cn[nH]c3-c3ccccn3)ccn2)cc1 [GW6604]
side effects ([2]; during the 3 weeks treatment): no obvious side effects
inhibited extracellular matrix deposition ([2]; given therapeutically): 60%
prevented death rate ([2]; given therapeutically): 40%
